Measurements from patent publication US9481676B2, “Azepino[4,5-B]indoles and methods of use” (Medivation Technologies, Inc., priority 2008, dated 2016).

Tests used:
[1] = target: T1, human recombinant serotonin (5-Hydroxytryptamine) 5-HT2C receptor (Homo sapiens, UniProt P28335); experiment: Serotonin 5-HT2C radioligand binding ([3H]Mesulergine); conditions: compound at 1 μM; read-out: Serotonin (1 μM) 5-HT2C, percent inhibition of specific binding
T1 construct: expressed in transfected cells; host or cells: CHO-K1 cells
T1 sequence (P28335 33-458): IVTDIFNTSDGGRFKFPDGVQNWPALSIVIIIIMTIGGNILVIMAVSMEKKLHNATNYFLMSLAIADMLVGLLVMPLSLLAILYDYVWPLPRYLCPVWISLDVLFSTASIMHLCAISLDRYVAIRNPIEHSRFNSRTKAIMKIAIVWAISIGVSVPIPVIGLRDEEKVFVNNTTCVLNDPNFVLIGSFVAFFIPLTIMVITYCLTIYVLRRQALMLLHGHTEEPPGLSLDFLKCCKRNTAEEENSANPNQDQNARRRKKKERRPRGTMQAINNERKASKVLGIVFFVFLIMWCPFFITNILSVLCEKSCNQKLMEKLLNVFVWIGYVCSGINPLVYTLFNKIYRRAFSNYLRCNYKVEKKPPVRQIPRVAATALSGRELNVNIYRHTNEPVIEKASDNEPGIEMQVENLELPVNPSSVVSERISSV
Summary of the method: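 Membranes from CHO-K1 cells expressing human 5-HT2C, incubated with 1 nM [3H]mesulergine for 60 min at 25 °C in 50 mM Tris-HCl pH 7.4 with ascorbic acid and pargyline.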

[2] = target: T2, human recombinant histamine H2 receptor (Homo sapiens, UniProt P25021); experiment: Histamine H2 radioligand binding ([125I]Aminopotentidine); conditions: compound at 1 μM; read-out: Histamine Binding (1 μM) H2, percent inhibition of specific binding
T2 construct: expressed in transfected cells; host or cells: CHO-K1 cells
T2 sequence (P25021 whole entry): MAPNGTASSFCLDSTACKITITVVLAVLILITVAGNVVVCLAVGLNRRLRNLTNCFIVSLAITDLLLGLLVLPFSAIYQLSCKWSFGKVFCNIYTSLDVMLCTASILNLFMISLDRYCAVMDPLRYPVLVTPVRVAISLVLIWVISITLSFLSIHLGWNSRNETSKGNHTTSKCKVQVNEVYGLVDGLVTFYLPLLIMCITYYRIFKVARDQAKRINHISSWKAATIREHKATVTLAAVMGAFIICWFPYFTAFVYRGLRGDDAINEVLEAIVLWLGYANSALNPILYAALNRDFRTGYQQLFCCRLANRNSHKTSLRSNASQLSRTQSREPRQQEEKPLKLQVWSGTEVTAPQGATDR
Summary of the method: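 Membranes from CHO-K1 cells expressing recombinant human H2 receptor, in 50 mM phosphate buffer pH 7.4, incubated with 0.1 nM [125I]aminopotentidine for 120 min at 25 °C; nonspecific binding defined with 3 μM tiotidine.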

[3] = target: T3, human recombinant dopamine D2L receptor (Homo sapiens, UniProt P14416); experiment: Dopamine D2L radioligand binding ([3H]Spiperone); conditions: compound at 1 μM; read-out: Dopamine (1 μM) D2L, percent inhibition of specific binding
T3 construct: expressed in transfected cells; host or cells: CHO cells
T3 sequence (P14416 whole entry): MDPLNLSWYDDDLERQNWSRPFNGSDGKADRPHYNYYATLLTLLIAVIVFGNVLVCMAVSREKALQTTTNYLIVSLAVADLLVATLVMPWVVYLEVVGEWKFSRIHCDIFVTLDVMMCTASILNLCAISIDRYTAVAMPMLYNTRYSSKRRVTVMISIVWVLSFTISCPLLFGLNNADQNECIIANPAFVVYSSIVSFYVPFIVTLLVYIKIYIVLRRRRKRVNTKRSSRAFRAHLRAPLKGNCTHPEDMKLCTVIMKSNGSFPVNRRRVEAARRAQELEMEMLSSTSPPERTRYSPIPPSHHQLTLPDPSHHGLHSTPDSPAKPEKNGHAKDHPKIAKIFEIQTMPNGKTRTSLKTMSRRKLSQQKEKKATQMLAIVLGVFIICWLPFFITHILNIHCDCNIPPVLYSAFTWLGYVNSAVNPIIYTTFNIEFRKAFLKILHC
Summary of the method: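 Binding measured by filtration and counting, reported as % inhibition of specific [3H]spiperone binding (0.16 nM tracer; 10 μM haloperidol for nonspecific). Compounds tested at ≤1 μM in 1% DMSO for 120 min at 25° C against CHO-expressed human D2L in pH 7.4 Tris-HCl buffer.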

[4] = target: T4, human recombinant histamine H1 receptor (Homo sapiens, UniProt P35367); experiment: Histamine H1 radioligand binding ([3H]Pyrilamine); conditions: compound at 1 μM; read-out: Histamine Binding (1 μM) H1, percent inhibition of specific binding
T4 construct: expressed in transfected cells; host or cells: CHO cells
T4 sequence (P35367 whole entry): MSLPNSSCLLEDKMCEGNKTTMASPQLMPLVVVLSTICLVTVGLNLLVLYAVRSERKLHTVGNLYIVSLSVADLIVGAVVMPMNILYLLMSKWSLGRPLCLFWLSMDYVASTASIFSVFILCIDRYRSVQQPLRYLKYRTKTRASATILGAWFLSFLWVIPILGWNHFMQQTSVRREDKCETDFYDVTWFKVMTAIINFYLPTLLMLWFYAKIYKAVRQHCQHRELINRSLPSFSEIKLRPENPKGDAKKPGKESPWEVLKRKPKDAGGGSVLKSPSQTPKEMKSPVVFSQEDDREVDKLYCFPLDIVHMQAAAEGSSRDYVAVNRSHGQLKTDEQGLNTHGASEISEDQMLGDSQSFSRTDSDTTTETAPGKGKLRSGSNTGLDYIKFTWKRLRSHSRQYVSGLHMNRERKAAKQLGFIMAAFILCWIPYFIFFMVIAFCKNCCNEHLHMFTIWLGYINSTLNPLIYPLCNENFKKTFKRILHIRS
Summary of the method: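 Membranes from CHO cells expressing the receptor were incubated with compound and 1.2 nM [3H]pyrilamine for 180 min at 25 °C in 50 mM Tris-HCl pH 7.4 with MgCl2, NaCl and sucrose; 1 μM pyrilamine defined non-specific binding. Filter-bound radioactivity was counted.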

Compound | inhibition at 1 µM [1] [%] | inhibition at 1 µM [2] [%] | inhibition at 1 µM [3] [%] | inhibition at 1 µM [4] [%]
Cc1ccc2c(c1)c1c(n2CCc2cncc(Cl)c2)CCN(C)CC1 [Compound No. 4, 6-(2-(5-chloropyridin-3-yl)ethyl)-1,2,3,4,5,6-hexahydro-3,9-dimethylazepino[4,5-b]indole] | 89 | 59 | 2 | 100
CN1CCc2c(n(CCc3ccncc3)c3ccc(Cl)cc23)CC1 [Compound No. 5, 9-chloro-1,2,3,4,5,6-hexahydro-3-methyl-6-(2-(pyridin-4-yl)ethyl)azepino[4,5-b]indole] | 90 | 62 | 34 | 100
Cc1ccc2c(c1)c1c(n2CCc2ccncc2)CCN(C)CC1 [Compound No. 6, 1,2,3,4,5,6-hexahydro-3,9-dimethyl-6-(2-(pyridin-4-yl)ethyl)azepino[4,5-b]indole] | 92 | 52 | 30 | 103
Cc1ccc(C(O)Cn2c3c(c4cc(Cl)ccc42)CCN(C)CC3)cn1 (centres unmarked) [Compound No. 7, 2-(9-chloro-2,3,4,5-tetrahydro-3-methylazepino[4,5-b]indol-6(1H)-yl)-1-(6-methylpyridin-3-yl)ethanol] | 64 | 52 | 15 | 101
CN1CCc2c(n(CCc3ccccn3)c3ccc(Cl)cc23)CC1 [Compound No. 8, 9-chloro-1,2,3,4,5,6-hexahydro-3-methyl-6-(2-(pyridin-2-yl)ethyl)azepino[4,5-b]indole] | 95 | 68 | 42 | 97
Cc1ccc2c(c1)c1c(n2CCc2ccccn2)CCN(C)CC1 [Compound No. 9, 1,2,3,4,5,6-hexahydro-3,9-dimethyl-6-(2-(pyridin-2-yl)ethyl)azepino[4,5-b]indole] | 93 | 44 | 20 | 99
CN1CCc2c(n(CCc3cncc(Cl)c3)c3ccc(Cl)cc23)CC1 [Compound No. 10, 9-chloro-6-(2-(5-chloropyridin-3-yl)ethyl)-1,2,3,4,5,6-hexahydro-3-methylazepino[4,5-b]indole] | 92 | 78 | 35 | 101
Cc1ccc2c(c1)c1c(n2CCc2ccc(C(=O)O)nc2)CCN(C)CC1 [Compound No. 11, 5-(2-(2,3,4,5-tetrahydro-3,9-dimethylazepino[4,5-b]indol-6(1H)-yl)ethyl)pyridine-2-carboxylic acid] | 34 | 7 | -11 | 97
CN1CCc2c(n(CC(C)(O)c3ccc(Cl)cc3)c3ccc(Cl)cc23)CC1 (centres unmarked) [Compound No. 12, 1-(9-chloro-2,3,4,5-tetrahydro-3-methylazepino[4,5-b]indol-6(1H)-yl)-2-(4-chlorophenyl)propan-2-ol] | 92 | 98 | 45 | 99
CN1CCc2c(n(CC(C)(O)c3ccc(F)cc3)c3ccc(Cl)cc23)CC1 (centres unmarked) [Compound No. 13, 1-(9-chloro-2,3,4,5-tetrahydro-3-methylazepino[4,5-b]indol-6(1H)-yl)-2-(4-fluorophenyl)propan-2-ol] | 89 | 92 | 38 | 98
Cc1ccc2c(c1)c1c(n2CC(C)(O)c2ccc(F)cc2)CCN(C)CC1 (centres unmarked) [Compound No. 14, 2-(4-fluorophenyl)-1-(2,3,4,5-tetrahydro-3,9-dimethylazepino[4,5-b]indol-6(1H)-yl)propan-2-ol] | 95 | 83 | 38 | 98
Cc1ccc2c(c1)c1c(n2CC(C)(O)c2ccc(Cl)cc2)CCN(C)CC1 (centres unmarked) [Compound No. 15, 2-(4-chlorophenyl)-1-(2,3,4,5-tetrahydro-3,9-dimethylazepino[4,5-b]indol-6(1H)-yl)propan-2-ol] | 100 | 92 | 45 | 100
CN1CCc2c(n(CC(O)c3ccc(Cl)cc3)c3ccc(Cl)cc23)CC1 (centres unmarked) [Compound No. 16, 2-(9-chloro-2,3,4,5-tetrahydro-3-methylazepino[4,5-b]indol-6(1H)-yl)-1-(4-chlorophenyl)ethanol] | 92 | 92 | 37 | 103
Cc1ccc2c(c1)c1c(n2CC(O)c2ccc(Cl)cc2)CCN(C)CC1 (centres unmarked) [Compound No. 17, 1-(4-chlorophenyl)-2-(2,3,4,5-tetrahydro-3,9-dimethylazepino[4,5-b]indol-6(1H)-yl)ethanol] | 93 | 84 | 34 | 101
CN1CCc2c(n(CC(O)c3cccnc3)c3ccc(Cl)cc23)CC1 (centres unmarked) [Compound No. 18, 2-(9-chloro-2,3,4,5-tetrahydro-3-methylazepino[4,5-b]indol-6(1H)-yl)-1-(pyridin-3-yl)ethanol] | 64 | 51 | 3 | 98
Cc1ccc2c(c1)c1c(n2CC(O)c2cccnc2)CCN(C)CC1 (centres unmarked) [Compound No. 19, 2-(2,3,4,5-tetrahydro-3,9-dimethylazepino[4,5-b]indol-6(1H)-yl)-1-(pyridin-3-yl)ethanol] | 52 | 42 | 12 | 99
Cc1ccc2c(c1)c1c(n2CCc2ccc(C(F)(F)F)nc2)CCN(C)CC1 [Compound No. 20, 6-(2-(6-(trifluoromethyl)pyridin-3-yl)ethyl)-1,2,3,4,5,6-hexahydro-3,9-dimethylazepino[4,5-b]indole] | 77 | 37 | 13 | 99
CN1CCc2c(n(CCc3ccc(C(=O)O)nc3)c3ccc(Cl)cc23)CC1 [Compound No. 21, 5-(2-(9-chloro-2,3,4,5-tetrahydro-3-methylazepino[4,5-b]indol-6(1H)-yl)ethyl)pyridine-2-carboxylic acid] | 29 | 13 | 6 | 96
Cc1ccc2c(c1)c1c(n2CC(=O)NC2CCCCC2)CCN(C)CC1 [Compound No. 22, N-cyclohexyl-2-(2,3,4,5-tetrahydro-3,9-dimethylazepino[4,5-b]indol-6(1H)-yl)acetamide] | -4 | 5 | 0 | 12
Cc1ccc2c(c1)c1c(n2CC(O)c2ccc(C)nc2)CCN(C)CC1 (centres unmarked) [Compound No. 23, 2-(2,3,4,5-tetrahydro-3,9-dimethylazepino[4,5-b]indol-6(1H)-yl)-1-(6-methylpyridin-3-yl)ethanol] | 37 | -3 | 4 | 58
CN1CCc2c(n(CC(O)c3ccccc3)c3ccc(Cl)cc23)CC1 (centres unmarked) [Compound No. 24, 2-(9-chloro-2,3,4,5-tetrahydro-3-methylazepino[4,5-b]indol-6(1H)-yl)-1-phenylethanol] | 95 | 58 | 41 | 100
Cc1ccc2c(c1)c1c(n2CC(O)c2ccccc2)CCN(C)CC1 (centres unmarked) [Compound No. 25, 2-(2,3,4,5-tetrahydro-3,9-dimethylazepino[4,5-b]indol-6(1H)-yl)-1-phenylethanol] | 94 | 47 | 43 | 91
Cc1ccc(C(O)Cn2c3c(c4cc(Cl)ccc42)CCN(C)CC3)cc1 (centres unmarked) [Compound No. 26, 2-(9-chloro-2,3,4,5-tetrahydro-3-methylazepino[4,5-b]indol-6(1H)-yl)-1-p-tolylethanol] | 93 | 84 | 65 | 97
